{
  "source": "patent US20210096127A1",
  "about": "“MEANS AND METHODS FOR MONITORING SCAR DEVELOPMENT” (HELMHOLTZ ZENTRUM MÜNCHEN - DEUTSCHES FORSCHUNGSZENTRUM FÜR …, priority 2018, published 2021)",
  "key": {"SCAD": {"test_system": "SCAD", "experiment": "Chemical screening with the SCAD (Scar-in-a-Dish) assay", "format": "cell-based, mice", "conditions": "2.5 μM final concentration", "text": "Dorsal skins were collected from C57BL/6J or En1^Cre;R26^mTmG or En1^e;R26^VT2/GK3 mice at different ages as indicated, and washed twice with cold DMEM/F12 (Thermo Fisher Scientific 11320074) medium to remove contaminating blood, and washed once with Hank's Balanced Salt Solution (HBSS, Thermo Fisher Scientific 14175095). After careful removal of non-skin tissue at the ventral side with a surgical scalpel, round full-thickness skin pieces were created with disposable Ø 2 mm biopsy punch (Stiefel 270130), and cultured in 300 μl of DMEM/F12 medium containing 10% FBS, 1× GlutaMAX (Thermo Fisher Scientific 35050038), 1× Penicillin/streptomycin (Thermo Fisher Scientific 15140122), and 1× MEM non-essential amino acids (Thermo Fisher Scientific 11140035) in each well of 96-well plates in a humidified 37° C., 5% CO2 incubator. (Note: the 2 mm skin pieces were cultured in medium but not floating at the liquid air surface). Fresh medium was supplied every second day and the skin tissues were harvested at the indicated time points (day 1 to day 5 after culture), with the fresh tissues serving as day 0 control, and fixed in 2% PFA for overnight at 4° C.\nD0 SCADs (see Example 2) were first treated with Nefopam from Prestwick chemical library (FDA approved library). The initial concentration of the chemical in library format is 1 mM, dissolved in DMSO. The final concentration of chemical used in FDA-library is 2.5 μM.\nAll chemicals in the library are the same (1 mM), and they are added by a robot, eg. 0.5 μl chemical per well of 200 μl culture to make 2.5 μM final concentration. SCAD biopsies were prepared in 96-well plate with 200 μl per well, the automated system was used to add the chemical Nefopam.\nAll the data were compiled on excel sheets and scores were added based on the visual variability observed when compared to the DMSO and media control D5 SCADs.\nThe chemical Nefopam was selected (see Example 7) and further analyzed on SCAD (see Example 2). The treatment was done in triplicates."}, "scar formation": {"test_system": "scar formation", "conditions": "stated as known; inhibitor of scar development; cited from earlier work"}},
  "note": "Counter-ions that a name gives are not always drawn.",
  "data": [
    {"smiles": "CN1CCOC(c2ccccc2)c2ccccc2C1", "note": "(stereo not shown) [Prestw-229, Nefopam hydrochloride]", "values": [
      {"measurement": "collagen formation in SCAD sections", "setting": "SCAD; D5 SCAD sections, compared to control SCAD", "result": "significantly less"},
      {"measurement": "scar formation in the whole-mount image", "setting": "SCAD; D5 SCAD, 96-well plate, triplicates, compared to control (media treated) SCAD", "result": "visually less scar formation"},
      {"measurement": "scar development", "setting": "SCAD; D5 SCAD, FIG. 7", "result": "visible reduction of scar development"},
      {"measurement": "scar formation (known effect, positive control)", "setting": "scar formation", "result": "known to reduce scar formation"}
    ]}
  ]
}
